One experiment has as its system thoracodorsal arteries. Put plainly: cGMP assay on thoracodorsal arteries. Also noted: species or system mouse. As to the method:
Isolated thoracodorsal arteries were cannulated and pressurized to 80 mmHg as previously described^13. Arteries were perfused with 5 μM Scr X or Hb α X with addition of 0.5 mmol/L of the phosphodiesterase inhibitor 3-isobutyl-1-methylxanthine (IBMX) (all conditions) or 100 μmol/L the nitric oxide synthase inhibitor L-NG-Nitroarginine Methyl Ester (L-NAME) for 20 minutes. Arteries were then stimulated with 50 μM phenylephrine for 10 minutes and immediately immersed in lysis buffer provided in the cGMP XP assay Kit (Cell Signaling) according to manufactures instructions. Briefly, a competition enzyme-linked immunoassay was used to generate a standard curve of known cGMP concentrations followed by calculating cGMP concentrations of experimental samples. The cGMP concentration in experimental samples was normalized to total protein concentration.

A further experiment deals with T1, eNOS and Hb α complex (Mus musculus, UniProt P70313).
T1 construct: from tissue; host or cells: isolated mouse thoracodorsal arteries
T1 sequence (P70313 2-1202 limits assumed): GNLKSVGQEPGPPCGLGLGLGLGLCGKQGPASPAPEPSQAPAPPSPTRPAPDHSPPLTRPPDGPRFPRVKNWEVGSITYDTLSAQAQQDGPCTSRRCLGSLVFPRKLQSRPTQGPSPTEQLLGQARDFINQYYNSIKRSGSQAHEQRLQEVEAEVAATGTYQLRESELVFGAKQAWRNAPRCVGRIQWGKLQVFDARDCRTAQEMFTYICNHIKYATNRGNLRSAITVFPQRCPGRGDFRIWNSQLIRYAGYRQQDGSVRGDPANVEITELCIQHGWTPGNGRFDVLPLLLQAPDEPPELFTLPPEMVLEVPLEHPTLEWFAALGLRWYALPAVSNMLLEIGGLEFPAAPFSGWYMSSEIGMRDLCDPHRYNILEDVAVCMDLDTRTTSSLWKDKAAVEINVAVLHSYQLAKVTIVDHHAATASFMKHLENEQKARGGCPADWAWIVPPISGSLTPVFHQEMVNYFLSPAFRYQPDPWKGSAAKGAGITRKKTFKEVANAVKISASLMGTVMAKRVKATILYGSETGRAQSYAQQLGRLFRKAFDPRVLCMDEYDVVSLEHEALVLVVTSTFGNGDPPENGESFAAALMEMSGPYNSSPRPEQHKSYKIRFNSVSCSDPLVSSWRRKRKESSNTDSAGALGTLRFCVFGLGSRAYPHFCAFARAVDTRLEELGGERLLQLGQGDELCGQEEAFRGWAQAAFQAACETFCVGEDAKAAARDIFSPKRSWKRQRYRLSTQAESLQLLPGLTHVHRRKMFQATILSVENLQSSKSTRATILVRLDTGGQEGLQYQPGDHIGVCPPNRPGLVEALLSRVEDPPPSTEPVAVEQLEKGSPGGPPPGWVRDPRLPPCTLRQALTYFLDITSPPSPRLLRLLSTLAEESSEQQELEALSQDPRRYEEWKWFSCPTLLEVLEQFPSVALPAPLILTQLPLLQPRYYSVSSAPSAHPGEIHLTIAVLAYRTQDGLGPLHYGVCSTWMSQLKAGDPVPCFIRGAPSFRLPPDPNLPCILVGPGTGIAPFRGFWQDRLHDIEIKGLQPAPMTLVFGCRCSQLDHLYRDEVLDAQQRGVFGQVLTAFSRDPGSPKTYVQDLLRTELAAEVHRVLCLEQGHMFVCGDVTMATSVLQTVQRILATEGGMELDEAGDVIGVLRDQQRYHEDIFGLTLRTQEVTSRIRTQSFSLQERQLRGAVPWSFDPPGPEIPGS
Put plainly: Proximity ligation assay for eNOS and Hb α on thoracodorsal arteries. As to the method:
Isolated thoracodorsal arteries were perfused with Scr X or Hb α X peptide (5 μmol/L) for 20 minutes and immediately immersed in 4% paraformaldehyde, paraffin-embedded and sectioned as previously described^12. Next, sections were de-paraffinized, blocked and incubated with 1:500 mouse anti-eNOS (BD Biosciences), 1:500 rabbit anti-Hb α and 1:500 mouse anti-caveolin-1 (BD Biosciences) primary antibodies overnight at 4° C. The following day, secondary antibodies conjugated with oligonucleotide PLA probes were added, ligated and rolling circle amplification with fluorescent oligonucleotides identified positive interaction sites as previously described^9. All images were visualized and captured using an Olympus Fluoview 1000 confocal microscope. For proximity ligation assay quantitation, positive interactions indicated by red punctates on the endothelium were counted and divided by the circumference of the lumen using Metamorph software.

Experiment [1] is described as follows: Blood pressure by radio telemetry, C57BL/6 mice. The experiment is classed as in vivo, mouse. To be noted: single bolus 0.125 mg/kg intraperitoneal. The method, then: Blood pressure was measured in conscious wildtype or eNOS^−/− mice under unrestrained conditions using implanted radio telemetry units. Continuous blood pressure measurements were recorded using Dataquest A.R.T. 20 software (DSI). To do so, mice were anesthetized with isoflurane and the catheters (TA11PA-C10, Data Sciences International (DSI)) were implanted in the left carotid artery. The catheter was tunneled through to the radiotransmitter, which was placed in a subcutaneous pouch along the flank. Mice were allowed to recover for seven days after surgery to regain normal circadian rhythms before arterial pressure measurements and experiments were initiated. Thirty minutes prior to peptide injection, continuous blood pressure readings were recorded. Then, a bolus injection of Scr X or Hb α X peptide, or saline was administered via an intraperitoneal injection at 0.125 mg/kg. One hour post-injection, blood pressure was recorded for a 30 minute duration. The change in blood pressure was calculated by subtracting the average pre injection blood pressure from the average post-injection blood pressure.

The test system of experiment [2] is eNOS phosphorylation on serine 1177. Put plainly: Western blot of pS1177 eNOS in coronary endothelial cells. The experiment is classed as cell-based, human. Conditions: 5 μmol/L peptide, 20 minutes. As to the method: (§1) Primary coronary endothelial cells (Lonza) were cultured on plastic 6-well dishes as previously described^9. For studies involving basal NO release, endothelial cells were incubated with 5 μmol/L of Scr X or Hb α X for 20 minutes followed by medium collection and nitrite measurements as described below. For bradykinin studies, coronary endothelial cells were grown to confluence followed by serum starvation overnight in a cocktail of Lonza EGM-2 medium supplemented with EGM-2 bullet kit and Opti MEM reduced growth medium using a ratio of 1:9 respectively. The next day, endothelial cells were incubated with Scr X or Hb α X peptide for 20 minutes followed by the addition of 10 μM bradykinin (Sigma) for 5 minutes followed by medium collection for nitrite measurements as described below.
Endothelial cells were harvested in lysis buffer, sonicated and subjected to electrophoresis using 10% Bis-Tris gels (Invitrogen) as previously described^13. Proteins were transferred to nitrocellulose, incubated with phospho-eNOS S1177 (BD Biosciences) or total eNOS (Sigma) and visualized and quantitated using Li-Cor Odyssey Imager as previously described^14.
Background: In western blotting, separated proteins are transferred to a membrane and probed.

Experiment [3] deals with human coronary endothelial cells. Put plainly: Nitrite measurements from media of coronary endothelial cells. The experiment is classed as cell-based. As to the method: as §1
Quantitation of nitrite in culture medium was measured by chemiluminescence using a Sievers nitric oxide analyzer according to manufacturer's instructions. Quantitation of peaks was analyzed using Origin Pro 6.0 as previously described^9.

The results in this text go back to patent US10253069B2, “Compositions and methods for regulating arterial tone” (University of Virginia Patent Foundation, priority 2012, dated 2019).

Consider “Peptide LSFPTTKTYF (SEQ ID NO:2), first ten amino acids of the Hb α sequence, with HIV-tat tag YGRKKRRQRRR at the N-terminus [Hb α X]”, for which, in the experiment on thoracodorsal arteries (phenylephrine stimulation plus L-NAME), the “cGMP accumulation with L-NAME” value is given as “reversed”. Moreover, in the experiment with thoracodorsal arteries (phenylephrine stimulation, compared to Scr X peptide), the cGMP accumulation entry is “significant increase”. The Inhibition of association on eNOS and Hb α complex (ex vivo studies) is reported as over 90%. At eNOS and Hb α complex (thoracodorsal arteries, 5 μmol/L peptide, 20 minutes), the “Colocalization / protein-protein interaction between eNOS and Hb α” value is reported as “significant loss of protein-protein interaction”. In addition, the “Systolic, diastolic and mean arterial blood pressure” value in experiment [1] was “significant decrease”. Moreover, in experiment [2], the “Basal eNOS phosphorylation on serine 1177” value was “no differences”. The “Nitrite accumulation following stimulation with bradykinin” value in experiment [3] (10 μM bradykinin, 5 minutes, Scr X vs Hb α X) is “no change”. The “Accumulation of nitrite in the culture medium, basal” value in experiment [3] (unstimulated cells) is on record as “no differences”.
